# Experimental data from ChEMBL document CHEMBL5338827, “Evolution and Discovery of Matrine Derivatives as a New Class of Anti-Hepatic Fibrosis Agents Targeting Ewing Sarcoma Breakpoint Region 1 (EWSR1)” (J Med Chem, 2023).
# Calls of active or inactive are those of the source. No cut-off for these calls is given here.
# Key:
# LX-2 [1] = assay: Anti-hepatic fibrosis activity in human LX2 cells assessed as inhibition of TGF-beta1 induced COL1A1 mRNA expression at 20 uM incubated for 24 hrs by qRT-PCR analysis; assay type: functional, cell-based
# Rattus norvegicus [2] = assay: Anti-hepatic fibrosis activity in bile duct ligation rat model assessed as reduction in bile TBiL level at 100 mg/kg, po administered for 14 days; assay type: functional; settings: time 14 day
# Rattus norvegicus [3] = assay: Anti-hepatic fibrosis activity in bile duct ligation rat model assessed as reduction in CoL1A1 protein expression at 100 mg/kg, po administered for 14 days by Western blot analysis; assay type: functional, organism-based; settings: time 14.0 day
# Mus musculus [4] = assay: Anti-hepatic fibrosis activity in MDR2 knockout liver injury mouse model assessed as reduction in TIMP1 mRNA expression at 100 mg/kg, po administered once a day for 4 weeks by qRT-PCR analysis; assay type: functional, organism-based
# LX-2 [5] = assay: Anti-hepatic fibrosis activity in human LX2 cells assessed as inhibition of TGFbeta1-induced alpha-SMA protein expression at 20 uM incubated for 24 hrs by western blot analysis; assay type: functional, cell-based
# Mus musculus [6] = assay: Anti-hepatic fibrosis activity in MDR2 knockout liver injury mouse model assessed as reduction in CTGF mRNA expression at 100 mg/kg, po administered once a day for 4 weeks by qRT-PCR analysis; assay type: functional, organism-based
# HSC-T6 [7] = assay: Anti-fibrosis effect in HSC-T6 cells assessed as reduction in TGFbeta1-induced MMP-2 protein expression measured for 24 hrs; assay type: functional, cell-based; settings: Rattus norvegicus, dose 2.5-20 µM
# Rattus norvegicus [8] = assay: Anti-hepatic fibrosis activity in bile duct ligation rat model assessed as reduction in bile TBA level at 100 mg/kg, po administered for 14 days; assay type: functional; settings: time 14 day
# [9] = target: T1, RNA-binding protein EWS (Homo sapiens) (UniProt Q01844); assay: Induction of EWSR1 degradation in human LX2 cells at 20 uM measured upto 32 hrs in presence of cycloheximide; assay type: cell-based
# T1 sequence (whole entry): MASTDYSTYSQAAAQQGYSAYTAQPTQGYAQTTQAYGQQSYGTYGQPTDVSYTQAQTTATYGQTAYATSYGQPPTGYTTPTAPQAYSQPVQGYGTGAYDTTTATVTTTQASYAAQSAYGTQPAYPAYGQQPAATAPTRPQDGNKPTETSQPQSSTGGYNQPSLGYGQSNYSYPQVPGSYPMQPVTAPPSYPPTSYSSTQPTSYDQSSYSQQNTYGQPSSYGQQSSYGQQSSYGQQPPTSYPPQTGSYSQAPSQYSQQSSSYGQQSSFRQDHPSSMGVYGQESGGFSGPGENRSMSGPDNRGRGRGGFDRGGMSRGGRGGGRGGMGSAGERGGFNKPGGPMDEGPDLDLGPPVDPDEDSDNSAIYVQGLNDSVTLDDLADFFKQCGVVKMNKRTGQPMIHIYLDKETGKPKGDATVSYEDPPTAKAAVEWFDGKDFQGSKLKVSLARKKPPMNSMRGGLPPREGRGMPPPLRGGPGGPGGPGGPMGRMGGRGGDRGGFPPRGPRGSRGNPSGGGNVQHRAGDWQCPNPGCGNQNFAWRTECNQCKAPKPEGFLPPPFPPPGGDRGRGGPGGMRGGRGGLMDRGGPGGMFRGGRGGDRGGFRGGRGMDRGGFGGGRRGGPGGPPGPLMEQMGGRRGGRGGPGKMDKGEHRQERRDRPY
# [10] = target: T2, Secreted frizzled-related protein 1 (Homo sapiens) (UniProt Q8N474); assay: Binding affinity to SFRP1 (unknown origin) in human LX2 cells by streptavidin bead based pull-down assay; assay type: cell-based
# T2 sequence (whole entry): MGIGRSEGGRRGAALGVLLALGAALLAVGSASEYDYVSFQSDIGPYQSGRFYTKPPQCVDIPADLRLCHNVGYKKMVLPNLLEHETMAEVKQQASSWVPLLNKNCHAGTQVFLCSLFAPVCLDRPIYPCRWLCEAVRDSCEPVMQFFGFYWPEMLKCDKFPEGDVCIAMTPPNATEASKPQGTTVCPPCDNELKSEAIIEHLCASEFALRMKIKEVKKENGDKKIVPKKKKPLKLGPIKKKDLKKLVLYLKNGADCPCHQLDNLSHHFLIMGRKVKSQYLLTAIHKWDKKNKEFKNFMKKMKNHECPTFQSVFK
# Rattus norvegicus [11] = assay: Anti-hepatic fibrosis activity in bile duct ligation rat model assessed as reduction in TGFB1 protein expression at 100 mg/kg, po administered for 14 days by Western blot analysis; assay type: functional, organism-based; settings: time 14.0 day
# HSC-T6 [12] = assay: Anti-fibrosis effect in HSC-T6 cells assessed as reduction in TGFbeta1-induced alpha-SMA protein expression measured for 24 hrs; assay type: functional, cell-based; settings: Rattus norvegicus, dose 2.5-20 µM
# LX-2 [13] = assay: Anti-fibrosis effect in human LX2 cells assessed as reduction in TGFbeta1-induced alpha-SMA protein expression at 10 to 20 uM measured for 24 hrs; assay type: functional, cell-based; settings: dose 10-20 µM
# Mus musculus [14] = assay: Anti-hepatic fibrosis activity in MDR2 knockout liver injury mouse model assessed as reduction in MMP2 protein expression at 100 mg/kg, po administered once a day for 4 weeks by Western blot analysis; assay type: functional, organism-based
# LX-2 [15] = assay: Anti-fibrosis effect in human LX2 cells assessed as reduction in TGFbeta1-induced integrin subunit alpha-V mRNA expression at 10 to 20 uM measured for 24 hrs; assay type: functional, cell-based; settings: dose 10-20 µM
# Rattus norvegicus [16] = assay: Anti-hepatic fibrosis activity in bile duct ligation rat model assessed as reduction in MMP2 mRNA expression at 100 mg/kg, po administered for 14 days by qRT-PCR analysis; assay type: functional, organism-based; settings: time 14.0 day
# Mus musculus [17] = assay: Anti-hepatic fibrosis activity in MDR2 knockout liver injury mouse model assessed as reduction in AST level at 100 mg/kg, po administered once a day for 4 weeks (reference value: 400+/-156.78 U/L); assay type: functional
# LX-2 [18] = assay: Anti-hepatic fibrosis activity in human LX2 cells assessed as inhibition of TGF-beta1 induced alpha-SMA mRNA expression at 20 uM incubated for 24 hrs by qRT-PCR analysis; assay type: functional, cell-based
# Mus musculus [19] = assay: Anti-hepatic fibrosis activity in MDR2 knockout liver injury mouse model assessed as reduction in bile duct hyperplasia at 100 mg/kg, po administered once a day for 4 weeks by H and E staining analysis; assay type: functional, organism-based
# Rattus norvegicus [20] = assay: Anti-hepatic fibrosis activity in bile duct ligation rat model assessed as reduction in AST level at 100 mg/kg, po administered for 14 days; assay type: functional; settings: time 14 day
# LX-2 [21] = assay: Anti-fibrosis effect in human LX2 cells assessed as reduction in TGFbeta1-induced COL1A1 mRNA expression at 10 to 20 uM measured for 24 hrs; assay type: functional, cell-based; settings: dose 10-20 µM
# Mus musculus [22] = assay: Anti-hepatic fibrosis activity in MDR2 knockout liver injury mouse model assessed as reduction in ALT level at 100 mg/kg, po administered once a day for 4 weeks (reference value: 397+/-123.30 U/L); assay type: functional
# Rattus norvegicus [23] = assay: Anti-hepatic fibrosis activity in bile duct ligation rat model assessed as reduction inflammation score at 100 mg/kg, po administered for 14 days; assay type: functional, organism-based; settings: time 14.0 day
# LX-2 [24] = assay: Anti-hepatic fibrosis activity in human LX2 cells assessed as inhibition of TGFbeta1-induced MMP-2 protein expression at 20 uM incubated for 24 hrs by western blot analysis; assay type: functional, cell-based
# Rattus norvegicus [25] = assay: Anti-hepatic fibrosis activity in bile duct ligation rat model assessed as reduction in ACTA2 mRNA expression at 100 mg/kg, po administered for 14 days by qRT-PCR analysis; assay type: functional, organism-based; settings: time 14.0 day
smiles,measurement,setting,value
CCCC[C@@H]1[C@H]2CCCN3CCC[C@@H](CN1C(=O)Nc1c(CC)cccc1CC)[C@@H]23,Activity,LX-2 [1],Active
same,Activity,Rattus norvegicus [2],4.91 µmol/L
same,Activity,Rattus norvegicus [3],Active
same,Activity,Mus musculus [4],Active
same,Activity,LX-2 [5],Active
same,Activity,Mus musculus [6],Active
same,Activity,HSC-T6 [7],Dose-Dependent Effect
same,Activity,Rattus norvegicus [8],433.11 µmol/L
same,Activity,[9],inactive
same,Activity,[10],inactive
same,Activity,Rattus norvegicus [11],Active
same,Activity,HSC-T6 [12],Dose-Dependent Effect
same,Activity,LX-2 [13],Active
same,Activity,Mus musculus [14],Active
same,Activity,LX-2 [15],Active
same,Activity,Rattus norvegicus [16],Active
same,Activity,Mus musculus [17],286.6 U/L
same,Activity,LX-2 [18],Active
same,Activity,Mus musculus [19],Active
same,Activity,Rattus norvegicus [20],447.83 U/L
same,Activity,LX-2 [21],Active
same,Activity,Mus musculus [22],295.2 U/L
same,Activity,Rattus norvegicus [23],Active
same,Activity,LX-2 [24],Active
same,Activity,Rattus norvegicus [25],Active
